{"source": "patent US11214803B2", "about": "“Modulators of YAP1 expression” (Ionis Pharmaceuticals, Inc., priority 2019, dated 2022)", "test_system": "Yap1 mRNA", "experiment": "Dose-dependent inhibition of human Yap1 in A-431 cells (Example 7, 10,000 cells per well, RTS36584)", "type": "cell-based", "settings": "free uptake", "experimental": "Modified oligonucleotides described in the studies above were tested at various doses in A-431 cells. Cultured A-431 cells at a density of 10,000 cells per well were treated using free uptake with modified oligonucleotides diluted to concentrations described in the tables below. After approximately 48 hours, Yap1 mRNA levels were measured as previously described using the Human Yap1 primer-probe set RTS36584. Yap1 mRNA levels were normalized to total RNA content, as measured by RIBOGREEN®. Results are presented in the tables below as percent control of the amount of Yap1 mRNA relative to untreated control cells (% UTC). IC50s were calculated using a linear regression on a log/linear plot of the data in excel.", "key": {"[1]": {"settings": "Table 59, 15.6 nM, A-431 cells 10,000 cells per well, 48 hours"}, "[2]": {"settings": "Table 59, 62.5 nM, A-431 cells 10,000 cells per well, 48 hours"}, "[3]": {"settings": "Table 59, 4000.00 nM, A-431 cells 10,000 cells per well, 48 hours"}, "[4]": {"settings": "Table 59, A-431 cells 10,000 cells per well"}, "[5]": {"settings": "Table 60, 15.6 nM, A-431 cells 10,000 cells per well, 48 hours"}, "[6]": {"settings": "Table 60, 62.5 nM, A-431 cells 10,000 cells per well, 48 hours"}, "[7]": {"settings": "Table 60, 4000.00 nM, A-431 cells 10,000 cells per well, 48 hours"}, "[8]": {"settings": "Table 60, A-431 cells 10,000 cells per well"}, "[9]": {"settings": "Table 58, 15.6 nM, A-431 cells 10,000 cells per well, 48 hours"}, "[10]": {"settings": "Table 58, 62.5 nM, A-431 cells 10,000 cells per well, 48 hours"}, "[11]": {"settings": "Table 58, 4000.00 nM, A-431 cells 10,000 cells per well, 48 hours"}, "[12]": {"settings": "Table 58, A-431 cells 10,000 cells per well"}, "[13]": {"settings": "Table 61, 15.6 nM, A-431 cells 10,000 cells per well, 48 hours"}, "[14]": {"settings": "Table 61, 62.5 nM, A-431 cells 10,000 cells per well, 48 hours"}, "[15]": {"settings": "Table 61, 4000.00 nM, A-431 cells 10,000 cells per well, 48 hours"}, "[16]": {"settings": "Table 61, A-431 cells 10,000 cells per well"}, "[17]": {"settings": "Table 57, 15.6 nM, A-431 cells 10,000 cells per well, 48 hours"}, "[18]": {"settings": "Table 57, 62.5 nM, A-431 cells 10,000 cells per well, 48 hours"}, "[19]": {"settings": "Table 57, 4000.00 nM, A-431 cells 10,000 cells per well, 48 hours"}, "[20]": {"settings": "Table 57, A-431 cells 10,000 cells per well"}}, "note": "Strand notation (5' to 3'): a small letter for the sugar, then the base; units joined by * are phosphorothioate-linked, units joined directly phosphodiester-linked; [ ] holds rarer units or linkages, { } end groups; capitals alone tell only the bases. k = constrained ethyl (cEt); [5mC] = 5-methylcytosine; d = 2'-deoxy (DNA)", "data": [{"substance": "958507 (kG*kA*kG*d[5mC]*dA*dG*dA*dT*dA*dA*dT*d[5mC]*dG*kA*kG*kA; antisense) [compound 958507]", "values": [{"measurement": "Yap1 mRNA, % UTC", "setting": "[1]", "result": 93, "unit": "% UTC"}, {"measurement": "Yap1 mRNA, % UTC", "setting": "[2]", "result": 69, "unit": "% UTC"}, {"measurement": "Yap1 mRNA, % UTC", "setting": "[3]", "result": 19, "unit": "% UTC"}, {"measurement": "IC50", "setting": "[4]", "result": 200, "unit": "nM"}]}, {"substance": "958658 (kA*k[5mC]*kA*dG*dT*dA*dT*dA*dA*dT*dA*dT*d[5mC]*k[5mC]*kT*kA; antisense) [compound 958658]", "values": [{"measurement": "Yap1 mRNA, % UTC", "setting": "[5]", "result": 90, "unit": "% UTC"}, {"measurement": "Yap1 mRNA, % UTC", "setting": "[6]", "result": 88, "unit": "% UTC"}, {"measurement": "Yap1 mRNA, % UTC", "setting": "[7]", "result": 29, "unit": "% UTC"}, {"measurement": "IC50", "setting": "[8]", "result": 400, "unit": "nM"}]}, {"substance": "958813 (kT*kT*kA*d[5mC]*dA*dG*dA*dG*dA*dG*dA*dT*dT*k[5mC]*kA*kT; antisense) [compound 958813]", "values": [{"measurement": "Yap1 mRNA, % UTC", "setting": "[5]", "result": 81, "unit": "% UTC"}, {"measurement": "Yap1 mRNA, % UTC", "setting": "[6]", "result": 79, "unit": "% UTC"}, {"measurement": "Yap1 mRNA, % UTC", "setting": "[7]", "result": 29, "unit": "% UTC"}, {"measurement": "IC50", "setting": "[8]", "result": 200, "unit": "nM"}]}, {"substance": "958742 (kA*kG*k[5mC]*dA*dA*dT*dA*dT*dG*dG*dT*dA*dT*kT*kA*kG; antisense) [compound 958742]", "values": [{"measurement": "Yap1 mRNA, % UTC", "setting": "[9]", "result": 105, "unit": "% UTC"}, {"measurement": "Yap1 mRNA, % UTC", "setting": "[10]", "result": 70, "unit": "% UTC"}, {"measurement": "Yap1 mRNA, % UTC", "setting": "[11]", "result": 20, "unit": "% UTC"}, {"measurement": "IC50", "setting": "[12]", "result": 200, "unit": "nM"}]}, {"substance": "958579 (kA*kT*k[5mC]*dT*dT*dA*dA*dT*d[5mC]*dT*dG*dT*dG*kG*k[5mC]*kT; antisense) [compound 958579]", "values": [{"measurement": "Yap1 mRNA, % UTC", "setting": "[13]", "result": 85, "unit": "% UTC"}, {"measurement": "Yap1 mRNA, % UTC", "setting": "[14]", "result": 52, "unit": "% UTC"}, {"measurement": "Yap1 mRNA, % UTC", "setting": "[15]", "result": 12, "unit": "% UTC"}, {"measurement": "IC50", "setting": "[16]", "result": 100, "unit": "nM"}]}, {"substance": "958531 (kG*kT*kA*dG*dG*dA*dG*d[5mC]*dA*dA*dG*dT*d[5mC]*kT*kT*kG; antisense) [compound 958531]", "values": [{"measurement": "Yap1 mRNA, % UTC", "setting": "[17]", "result": 92, "unit": "% UTC"}, {"measurement": "Yap1 mRNA, % UTC", "setting": "[18]", "result": 63, "unit": "% UTC"}, {"measurement": "Yap1 mRNA, % UTC", "setting": "[19]", "result": 13, "unit": "% UTC"}, {"measurement": "IC50", "setting": "[20]", "result": 100, "unit": "nM"}]}, {"substance": "958545 (kA*k[5mC]*kT*d[5mC]*dT*dA*dG*dT*dT*dA*d[5mC]*dA*dT*k[5mC]*kA*kT; antisense) [compound 958545]", "values": [{"measurement": "Yap1 mRNA, % UTC", "setting": "15.6 nM, A-431 cells, 10,000 cells per well, approximately 48 hours", "result": 75, "unit": "% UTC"}, {"measurement": "Yap1 mRNA, % UTC", "setting": "62.5 nM, A-431 cells, 10,000 cells per well, approximately 48 hours", "result": 50, "unit": "% UTC"}, {"measurement": "Yap1 mRNA, % UTC", "setting": "4000.00 nM, A-431 cells, 10,000 cells per well, approximately 48 hours", "result": 8, "unit": "% UTC"}, {"measurement": "IC50", "setting": "A-431 cells, approximately 48 hours, linear regression on log/linear plot", "result": 100, "unit": "nM"}]}, {"substance": "958563 (kA*kG*k[5mC]*dT*dT*dT*dT*dG*d[5mC]*d[5mC]*dA*dG*dG*kA*kG*kA; antisense) [compound 958563]", "values": [{"measurement": "Yap1 mRNA, % UTC", "setting": "[1]", "result": 94, "unit": "% UTC"}, {"measurement": "Yap1 mRNA, % UTC", "setting": "[2]", "result": 54, "unit": "% UTC"}, {"measurement": "Yap1 mRNA, % UTC", "setting": "[3]", "result": 10, "unit": "% UTC"}, {"measurement": "IC50", "setting": "[4]", "result": 100, "unit": "nM"}]}, {"substance": "958598 (k[5mC]*k[5mC]*k[5mC]*dA*dA*dT*dG*d[5mC]*dT*dA*d[5mC]*d[5mC]*d[5mC]*kA*kA*kT; antisense) [compound 958598]", "values": [{"measurement": "Yap1 mRNA, % UTC", "setting": "[5]", "result": 93, "unit": "% UTC"}, {"measurement": "Yap1 mRNA, % UTC", "setting": "[6]", "result": 58, "unit": "% UTC"}, {"measurement": "Yap1 mRNA, % UTC", "setting": "[7]", "result": 19, "unit": "% UTC"}, {"measurement": "IC50", "setting": "[8]", "result": 100, "unit": "nM"}]}, {"substance": "958527 (kG*kT*kA*dA*dG*dT*dA*dA*dG*dA*dA*d[5mC]*dA*kA*kT*k[5mC]; antisense) [compound 958527]", "values": [{"measurement": "Yap1 mRNA, % UTC", "setting": "[9]", "result": 89, "unit": "% UTC"}, {"measurement": "Yap1 mRNA, % UTC", "setting": "[10]", "result": 74, "unit": "% UTC"}, {"measurement": "Yap1 mRNA, % UTC", "setting": "[11]", "result": 13, "unit": "% UTC"}, {"measurement": "IC50", "setting": "[12]", "result": 100, "unit": "nM"}]}, {"substance": "958481 (kG*k[5mC]*kA*dA*d[5mC]*dT*dG*dG*d[5mC]*dT*dT*dA*dT*kG*kG*kA; antisense) [compound 958481]", "values": [{"measurement": "Yap1 mRNA, % UTC", "setting": "[17]", "result": 86, "unit": "% UTC"}, {"measurement": "Yap1 mRNA, % UTC", "setting": "[18]", "result": 62, "unit": "% UTC"}, {"measurement": "Yap1 mRNA, % UTC", "setting": "[19]", "result": 14, "unit": "% UTC"}, {"measurement": "IC50", "setting": "[20]", "result": 100, "unit": "nM"}]}, {"substance": "958599 (kT*kT*k[5mC]*dA*dA*dG*dA*dA*dT*dA*d[5mC]*d[5mC]*d[5mC]*kA*kG*kT; antisense) [compound 958599]", "values": [{"measurement": "Yap1 mRNA, % UTC", "setting": "[13]", "result": 100, "unit": "% UTC"}, {"measurement": "Yap1 mRNA, % UTC", "setting": "[14]", "result": 74, "unit": "% UTC"}, {"measurement": "Yap1 mRNA, % UTC", "setting": "[15]", "result": 16, "unit": "% UTC"}, {"measurement": "IC50", "setting": "[16]", "result": 200, "unit": "nM"}]}, {"substance": "958593 (kG*kG*kT*d[5mC]*dA*dG*dT*dA*d[5mC]*dA*dG*dA*dG*kG*kG*k[5mC]; antisense) [compound 958593]", "values": [{"measurement": "Yap1 mRNA, % UTC", "setting": "[5]", "result": 99, "unit": "% UTC"}, {"measurement": "Yap1 mRNA, % UTC", "setting": "[6]", "result": 60, "unit": "% UTC"}, {"measurement": "Yap1 mRNA, % UTC", "setting": "[7]", "result": 15, "unit": "% UTC"}, {"measurement": "IC50", "setting": "[8]", "result": 100, "unit": "nM"}]}, {"substance": "958538 (kA*kT*k[5mC]*d[5mC]*dA*dG*dG*dG*dT*d[5mC]*dA*dA*dT*kT*kT*kT; antisense) [compound 958538]", "values": [{"measurement": "Yap1 mRNA, % UTC", "setting": "[5]", "result": 101, "unit": "% UTC"}, {"measurement": "Yap1 mRNA, % UTC", "setting": "[6]", "result": 77, "unit": "% UTC"}, {"measurement": "Yap1 mRNA, % UTC", "setting": "[7]", "result": 30, "unit": "% UTC"}, {"measurement": "IC50", "setting": "[8]", "result": 300, "unit": "nM"}]}]}
